Tests used:
[1] = 298.15 K, 101.3 kPa, Liquid; for mass density: Vibrating tube method
[2] = refractive index (Na D-line) (dimensionless); conditions: 298.15 K; 101.33 kPa; Liquid; Standard Abbe refractometry
[3] = xn = mol fraction of the nth substance listed; conditions: 298.15 K, 101.3 kPa, Liquid; for mass density: Vibrating tube method
[4] = refractive index (Na D-line) (dimensionless); xn = mol fraction of the nth substance listed; conditions: 298.15 K, 101.3 kPa, Liquid, Standard Abbe refractometry

CCOS(=O)(=O)[O-].CC[n+]1cccc(C)c1 [1-ethyl-3-methylpyridinium ethylsulfate]
Conditions	mass density [kg/m3]	refractive index	viscosity [mPa·s]
[1]	1222.2	–	161.4
[2]	–	1.50666	–

CCCO [propan-1-ol]
Conditions	mass density [kg/m3]	refractive index	viscosity [mPa·s]
[1]	799.5	–	2.017
[2]	–	1.3837	–

CCCO [propan-1-ol] + CCOS(=O)(=O)[O-].CC[n+]1cccc(C)c1
x1 = 1
Conditions	mass density [kg/m3]	refractive index	viscosity [mPa·s]
[3]	799.5	–	2.017
[4]	–	1.3837	–

CCOS(=O)(=O)[O-].CC[n+]1cccc(C)c1 [1-ethyl-3-methylpyridinium ethylsulfate] + CCCO
Conditions	mass density, [3] [kg/m3]	refractive index, [4]	viscosity, [3] [mPa·s]
x2 = 0	1222.2	1.50666	161.4
x2 = 0.0863	1208.44	1.50223	126.4
x2 = 0.1279	1201.22	1.5002	112.4
x2 = 0.2201	1183.56	1.49524	85.83
x2 = 0.3243	1160.24	1.48866	62.26
x2 = 0.4177	1135.68	1.48167	48.86
x2 = 0.5126	1106.18	1.47321	34.16
x2 = 0.6093	1069.97	1.4627	24.62
x2 = 0.7176	1019.9	1.44818	16.27
x2 = 0.824	956.78	1.4297	9.9
x2 = 0.8834	913.04	1.41684	7.027
x2 = 0.9658	837.78	1.39459	3.411

From the NIST ThermoML archive (doi:10.1021/je8009732)
